Reference: patent US20180186742A1, “PICOLINAMIDES AS FUNGICIDES” (Dow AgroSciences LLC, priority 2017, published 2018)
Where two headings read alike, the source gives them in different places.

How the values were obtained:
Zymoseptoria tritici = test: Leaf blotch of wheat (SEPTTR), disease control on wheat seedlings; format: in vivo; details: for pest or weed control at 100 ppm: high volume application at 100 ppm; for pest or weed control at 121.5 g/ha: low volume application at 121.5 g/H
Description: Technical grades of materials were dissolved in acetone, which were then mixed with nine volumes of water containing 110 ppm Triton X-100. The fungicide solutions were applied onto wheat seedlings using an automated booth sprayer to run-off. All sprayed plants were allowed to air dry prior to further handling. All fungicides were evaluated using the aforementioned method for their activity vs. all target diseases, unless stated otherwise. Wheat leaf blotch and brown rust activity were also evaluated using track spray applications, in which case the fungicides were formulated as EC formulations, containing 0.1% Trycol 5941 in the spray solutions. Wheat plants (variety Yuma) were grown from seed in a greenhouse in 50% mineral soil/50% soil-less Metro mix until the first leaf was fully emerged, with 7-10 seedlings per pot. These plants were inoculated with an aqueous spore suspension of Zymoseptoria tritici either prior to or after fungicide treatments. After inoculation the plants were kept in 100% relative humidity (one day in a dark dew chamber followed by two to three days in a lighted dew chamber at 20° C.) to permit spores to germinate and infect the leaf. The plants were then transferred to a greenhouse set at 20° C. for disease to develop. When disease symptoms were fully expressed on the 1st leaves of untreated plants, infection levels were assessed on a scale of 0 to 100 percent disease severity. Percent disease control was calculated using the ratio of disease severity on treated plants relative to untreated plants.

Puccinia triticina = test: Wheat brown rust (PUCCRT), disease control on wheat seedlings; format: in vivo; details: for pest or weed control at 100 ppm: high volume application at 100 ppm; for pest or weed control at 121.5 g/ha: low volume application at 121.5 g/H
Description: Technical grades of materials were dissolved in acetone, which were then mixed with nine volumes of water containing 110 ppm Triton X-100. The fungicide solutions were applied onto wheat seedlings using an automated booth sprayer to run-off. All sprayed plants were allowed to air dry prior to further handling. All fungicides were evaluated using the aforementioned method for their activity vs. all target diseases, unless stated otherwise. Wheat leaf blotch and brown rust activity were also evaluated using track spray applications, in which case the fungicides were formulated as EC formulations, containing 0.1% Trycol 5941 in the spray solutions. Wheat plants (variety Yuma) were grown from seed in a greenhouse in 50% mineral soil/50% soil-less Metro mix until the first leaf was fully emerged, with 7-10 seedlings per pot. These plants were inoculated with an aqueous spore suspension of Puccinia triticina either prior to or after fungicide treatments. After inoculation the plants were kept in a dark dew room at 22° C. with 100% relative humidity overnight to permit spores to germinate and infect the leaf. The plants were then transferred to a greenhouse set at 24° C. for disease to develop. Fungicide formulation, application and disease assessment followed the procedures as described in the Example A.

[1] = 24 h, 1 Day Protectant, read-out: SEPTTR disease control, 1DP, HV activity
[2] = 72 h, 3 Day Curative, read-out: SEPTTR disease control, 3DC, HV activity
[3] = 24 h, 1 Day Protectant, read-out: PUCCRT disease control, 1DP, HV activity
[4] = 72 h, 3 Day Curative, read-out: PUCCRT disease control, 3DC, HV activity
[5] = 24 h, 1 Day Protectant, read-out: SEPTTR disease control, 1DP, LV activity
[6] = 72 h, 3 Day Curative, read-out: SEPTTR disease control, 3DC, LV activity
[7] = 24 h, 1 Day Protectant, read-out: PUCCRT disease control, 1DP, LV activity
[8] = 72 h, 3 Day Curative, read-out: PUCCRT disease control, 3DC, LV activity

Row | SMILES | pest or weed control at 100 ppm (Zymoseptoria tritici; [1]) | pest or weed control at 100 ppm (Zymoseptoria tritici; [2]) | pest or weed control at 100 ppm (Puccinia triticina; [3]) | pest or weed control at 100 ppm (Puccinia triticina; [4]) | pest or weed control at 121.5 g/ha (Zymoseptoria tritici; [5]) | pest or weed control at 121.5 g/ha (Zymoseptoria tritici; [6]) | pest or weed control at 121.5 g/ha (Puccinia triticina; [7]) | pest or weed control at 121.5 g/ha (Puccinia triticina; [8])
1 | COc1cc(F)ccc1[C@@H](C(C)C)[C@H](C)OC(=O)[C@H](C)NC(=O)c1nccc(OC)c1O [Compound 138] | < 0% | < 0% | > 80% | > 80% | – | – | – | –
2 | COc1cc(F)ccc1[C@@H](C1CCCCC1)[C@H](C)OC(=O)[C@H](C)NC(=O)c1nccc(OC)c1O [Compound 139] | > 80% | < 0% | > 80% | < 80% | – | – | – | –
3 | COc1cc(F)ccc1[C@@H](C1CCCC1)[C@H](C)OC(=O)[C@H](C)NC(=O)c1nccc(OC)c1O [Compound 140] | < 0% | < 80% | > 80% | > 80% | – | – | – | –
4 | CCC(C)[C@H](c1ccc(F)cc1OC)[C@H](C)OC(=O)[C@H](C)NC(=O)c1nccc(OC)c1O (stereo partly drawn) [Compound 141] | < 0% | > 80% | < 80% | > 80% | – | – | – | –
5 | COc1cc(F)ccc1[C@@H](C1CCC1)[C@H](C)OC(=O)[C@H](C)NC(=O)c1nccc(OC)c1O [Compound 142] | < 0% | < 80% | > 80% | > 80% | – | – | – | –
6 | COc1cc(F)ccc1[C@H](C1CCCCC1)[C@H](C)OC(=O)[C@H](C)NC(=O)c1nccc(OC)c1O [Compound 143] | > 80% | < 80% | > 80% | > 80% | – | – | – | –
7 | COc1cc(F)ccc1[C@H](C1CCCC1)[C@H](C)OC(=O)[C@H](C)NC(=O)c1nccc(OC)c1O [Compound 144] | < 80% | > 80% | > 80% | > 80% | – | – | – | –
8 | CCC(CC)[C@@H](c1ccc(F)cc1OC)[C@H](C)OC(=O)[C@H](C)NC(=O)c1nccc(OC)c1O [Compound 145] | < 80% | > 80% | > 80% | > 80% | – | – | – | –
9 | CCC(C)[C@@H](c1ccc(F)cc1OC)[C@H](C)OC(=O)[C@H](C)NC(=O)c1nccc(OC)c1O (stereo partly drawn) [Compound 146] | < 80% | > 80% | > 80% | > 80% | – | – | – | –
10 | COc1cc(F)ccc1[C@H](C1CCC1)[C@H](C)OC(=O)[C@H](C)NC(=O)c1nccc(OC)c1O [Compound 147] | < 0% | < 80% | > 80% | > 80% | – | – | – | –
11 | COc1cc(F)ccc1[C@H](C(C)C)[C@H](C)OC(=O)[C@H](C)NC(=O)c1nccc(OC)c1O [Compound 148] | < 0% | < 80% | < 80% | > 80% | – | – | – | –
12 | COc1ccnc(C(=O)N[C@@H](C)C(=O)O[C@@H](C)[C@@H](c2ccc(C)cc2C)C2CCC2)c1O [Compound 149] | < 80% | > 80% | < 80% | < 80% | – | – | – | –
13 | COc1ccnc(C(=O)N[C@@H](C)C(=O)O[C@@H](C)[C@@H](c2ccccc2)C(C)C)c1OC(C)=O [Compound 160] | – | – | – | – | < 80% | > 80% | > 80% | < 80%
14 | COc1ccnc(C(=O)N[C@@H](C)C(=O)O[C@@H](C)[C@@H](c2ccccc2)C2CCCC2)c1OC(C)=O [Compound 161] | – | – | – | – | < 80% | > 80% | > 80% | < 80%
15 | COc1ccnc(C(=O)N[C@@H](C)C(=O)O[C@@H](C)[C@@H](c2ccccc2)C2CCCC2)c1OCOC(C)=O [Compound 163] | – | – | – | – | < 80% | > 80% | > 80% | < 80%
